Results published in US7855288B2, “Pyrrolo [1,2-d] [1,2-4] triazine as inhibitors of c-Jun N terminal kinases (JNK) and p-38 kinases” (Novartis AG, priority 2004, dated 2010).
pIC50: −log10 of the molar value.

Experiments:
human recombinant Jnk2 = human recombinant Jnk2 (Homo sapiens, UniProt P45984); assay: JNK enzymatic assay (33P incorporation into peptide); type: biochemical; details: JNK2 kinase IC50 class, Table 1
Description: In a final reaction volume of 20 μL, 5 nM human recombinant Jnk2 was incubated in the absence or presence of putative JNK inhibitors in increasing concentrations with 25 mM HEPES pH 7.5, 20 mM p-glycerophosphate, 10 mM MgCl2, 0.1 mM sodium orthovanadate, 0.005% Tween® 80, 10 uM [γ-^33P-ATP], 500 μM IPTTPITTTYFFFKKK peptide substrate and 2 mM DTT. The reaction was initiated by the addition of the [g-^33P-ATP]. After incubation for 20 minutes at 30° C., the aliquots were transferred onto P30/GF filtermats (PerkinElmer). Each filtermat washed four times in 100 ml 0.5% phosphoric acid, 0.5 mM pyrophosphate, then twice in 50 ml ethanol, dried and sealed into bag containing 5 ml of OptiPhase “SuperMix” liquid scintillation cocktail (PerkinElmer). Radioactivity incorporated into peptide was quantified on Trilux 1450 Microbeta plate-reader. IC50 values were calculated using SigmaPlot.

p38α kinase = target: T1, p38α kinase (Homo sapiens, UniProt Q16539); assay: p38α assay (ADP release coupled to NADH oxidation); type: biochemical; details: p38 kinase IC50 class, Table 1; read-out: p38α inhibition
T1 construct: purchased Upstate
Description: The p38α assay employed is based on measurement of ADP released in the reaction of interest through NADH oxidation obtained by coupling with pyruvate kinase and lactate dehydrogenase reactions. The assays were performed in 384-well UV-plates. The final volume was 25 uL prepared from the addition of 2.5 uL compound dissolved in 10% DMSO, 17.5 uL of assay buffer and 5 uL of ATP. Assay buffer contains the following reagents to give final concentration in the assay: 25 mM HEPES, 20 mM 2-glycerophosphate, pH 7.6, 10 mM MgCl2, 0.1 mM sodium orthovanadate, 0.5 mM phosphoenolpyruvate, 0.12 mM NADH, 3.1 mg/ml LDH, 6.67 mg/ml pyruvate kinase, 0.25 mM peptide substrate, 2 mM DTT, 0.005% Tween 80 and 20 nM p38α kinase from Upstate. Test compounds are preincubated with p38α kinase for 60 min and the reaction started by addition of ATP to 0.15 mM final concentration. Reaction rates were measured at 340 nm using SpectraMax plate-reading spectrophotometer for 10 min at 37° C. Inhibition data were analyzed by non-linear least-squares regression using SigmaPlot.

Sequence of human recombinant Jnk2 (P45984 whole entry): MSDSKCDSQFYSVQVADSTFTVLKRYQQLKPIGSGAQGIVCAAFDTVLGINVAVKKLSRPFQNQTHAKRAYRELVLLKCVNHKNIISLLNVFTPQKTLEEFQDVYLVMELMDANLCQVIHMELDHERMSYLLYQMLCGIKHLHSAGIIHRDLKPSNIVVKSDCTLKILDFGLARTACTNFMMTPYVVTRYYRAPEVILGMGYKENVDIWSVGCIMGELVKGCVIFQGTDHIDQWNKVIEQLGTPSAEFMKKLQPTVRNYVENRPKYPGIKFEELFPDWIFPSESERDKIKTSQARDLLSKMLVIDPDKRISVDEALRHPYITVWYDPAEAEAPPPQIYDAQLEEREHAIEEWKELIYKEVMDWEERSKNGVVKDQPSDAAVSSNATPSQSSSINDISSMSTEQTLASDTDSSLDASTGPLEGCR
T1 sequence (Q16539 whole entry): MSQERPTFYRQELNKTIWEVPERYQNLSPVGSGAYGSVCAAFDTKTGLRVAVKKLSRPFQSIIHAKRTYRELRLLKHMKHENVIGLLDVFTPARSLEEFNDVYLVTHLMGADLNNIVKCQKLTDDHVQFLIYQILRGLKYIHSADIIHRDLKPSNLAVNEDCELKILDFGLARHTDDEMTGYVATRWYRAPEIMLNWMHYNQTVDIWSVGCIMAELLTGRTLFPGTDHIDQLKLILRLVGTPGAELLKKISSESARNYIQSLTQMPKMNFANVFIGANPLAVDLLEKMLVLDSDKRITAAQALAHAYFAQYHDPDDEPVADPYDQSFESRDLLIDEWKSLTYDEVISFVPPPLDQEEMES

CCOC(=O)c1cc2cnnc(Nc3cc(NC(=O)OC(C)C)ccc3C)n2c1C [Compound 14]
pIC50 (human recombinant Jnk2): 5.00 to 6.00 | pIC50 (p38α kinase): 5.00 to 6.00

CCOC(=O)c1cc2cnnc(Nc3cc(C(=O)Nc4ccccc4)ccc3C)n2c1C [Compound 12]
pIC50 (human recombinant Jnk2): 5.00 to 6.00 | pIC50 (p38α kinase): 5.00 to 6.00

CCOC(=O)c1cc2cnnc(Nc3cc(N)ccc3C)n2c1C [Compound 24]
pIC50 (human recombinant Jnk2): < 5.00 | pIC50 (p38α kinase): < 5.00

CCOC(=O)c1cc2cnnc(Nc3cccc(C(=O)O)c3)n2c1C [Compound 17]
pIC50 (human recombinant Jnk2): 5.00 to 6.00

CCOC(=O)Nc1ccc(C)c(Nc2nncc3cc(C(=O)OCC)c(C)n23)c1 [Compound 5, 4-(5-Ethoxycarbonylamino-2-methyl-phenylamino)-6-methyl-pyrrolo[1,2-d][1,2,4]triazine-7-carboxylic acid ethyl ester]
pIC50 (human recombinant Jnk2): > 6.00 | pIC50 (p38α kinase): > 6.00

CCOC(=O)c1cc2cnnc(Nc3ccccc3)n2c1C [Compound 15]
pIC50 (human recombinant Jnk2): 5.00 to 6.00 | pIC50 (p38α kinase): 5.00 to 6.00

CCOC(=O)c1cc2cnnc(Nc3ccc(C(=O)OC)cc3)n2c1C [Compound 10]
pIC50 (human recombinant Jnk2): 5.00 to 6.00

CNC(=O)c1cc2cnnc(Nc3cc(C(=O)NC4CC4)ccc3C)n2c1C [Compound 7]
pIC50 (human recombinant Jnk2): > 6.00 | pIC50 (p38α kinase): > 6.00

CCOC(=O)c1cc2cnnc(Nc3cc(C(=O)N4CCOCC4)ccc3C)n2c1C [Compound 22]
pIC50 (human recombinant Jnk2): < 5.00

CCOC(=O)c1cc2cnnc(Nc3cccc(C(=O)NC4CC4)c3)n2c1C [Compound 11]
pIC50 (human recombinant Jnk2): 5.00 to 6.00 | pIC50 (p38α kinase): 5.00 to 6.00

CCOC(=O)c1cc2cnnc(Nc3cc(C(=O)NCc4ccccc4)ccc3C)n2c1C [Compound 20]
pIC50 (human recombinant Jnk2): 5.00 to 6.00 | pIC50 (p38α kinase): 5.00 to 6.00

CCOC(=O)c1cc2cnnc(Nc3cc(NC(C)=O)ccc3C)n2c1C [Compound 19]
pIC50 (human recombinant Jnk2): 5.00 to 6.00 | pIC50 (p38α kinase): < 5.00

Cc1ccc(C(=O)NC2CC2)cc1Nc1nncc2cc(C(=O)NC3CC3)c(C)n12 [Compound 8]
pIC50 (human recombinant Jnk2): 5.00 to 6.00 | pIC50 (p38α kinase): > 6.00

CCNC(=O)c1ccc(C)c(Nc2nncc3cc(C(=O)OCC)c(C)n23)c1 [Compound 9]
pIC50 (human recombinant Jnk2): 5.00 to 6.00 | pIC50 (p38α kinase): 5.00 to 6.00

Cc1ccc(C(=O)NC2CC2)cc1Nc1nncc2cc(C(=O)NCc3ccccc3)c(C)n12 [Compound 4, 4-(5-Cyclopropylcarbamoyl-2-methyl-phenylamino)-6-methyl-pyrrolo[1,2-d][1,2,4]triazine-7-carboxylic acid benzylamide]
pIC50 (human recombinant Jnk2): > 6.00 | pIC50 (p38α kinase): > 6.00

CCOC(=O)c1cc2cnnc(Nc3cc(C(N)=O)ccc3C)n2c1C [Compound 23]
pIC50 (human recombinant Jnk2): < 5.00

CCOC(=O)c1cc2cnnc(Nc3ccccc3C)n2c1C [Compound 16]
pIC50 (human recombinant Jnk2): 5.00 to 6.00 | pIC50 (p38α kinase): 5.00 to 6.00

CCOC(=O)c1cc2cnnc(Nc3ccc(Cl)cc3)n2c1C [Compound 6]
pIC50 (human recombinant Jnk2): 5.00 to 6.00 | pIC50 (p38α kinase): 5.00 to 6.00

CCOC(=O)c1cc2cnnc(Nc3cc(C(=O)NC4CC4)ccc3C)n2c1C [Compound 3, 4-(5-Cyclopropylcarbamoyl-2-methyl-phenylamino)-6-methyl-pyrrolo[1,2-d][1,2,4]triazine-7-carboxylic acid ethyl ester]
pIC50 (human recombinant Jnk2): > 6.00 | pIC50 (p38α kinase): > 6.00

CCOC(=O)c1cc2cnnc(Nc3cc(-c4ncco4)ccc3C)n2c1C [Compound 13]
pIC50 (human recombinant Jnk2): 5.00 to 6.00

CCOC(=O)c1cc2cnnc(Nc3cc(C(=O)NC(C)C)ccc3C)n2c1C [Compound 21]
pIC50 (human recombinant Jnk2): < 5.00

CCOC(=O)c1cc2cnnc(Nc3cc(C(=O)NC4CC4)ccc3OC)n2c1C [Compound 1, 4-(5-Cyclopropylcarbamoyl-2-methoxy-phenylamino)-6-methyl-pyrrolo[1,2-d][1,2,4]triazine-7-carboxylic acid ethyl ester]
pIC50 (human recombinant Jnk2): 5.00 to 6.00 | pIC50 (p38α kinase): 5.00 to 6.00

CCOC(=O)c1cc2cnnc(Nc3cc(C(=O)O)ccc3C)n2c1C [Compound 18]
pIC50 (human recombinant Jnk2): 5.00 to 6.00 | pIC50 (p38α kinase): 5.00 to 6.00

CCOC(=O)c1cc2cnnc(Nc3cc(-c4nnc[nH]4)ccc3C)n2c1C [Compound 2, 4-[2-Methyl-5-(4H-[1,2,4]triazol-3-yl)-phenylamino]-6-methyl-pyrrolo[1,2-d][1,2,4]triazine-7-carboxylic acid ethyl ester]
pIC50 (p38α kinase): 5.00 to 6.00
